One test has as its system HCV replicon genotype 1a. Kind of test: HCV replicon assay, genotype 1a (cell ELISA for NS3/4A). Type of test: cell-based, hepatitis C virus. The following applies: Hepatitis C virus, 96 h, read-out: 1a IC50 (nM), HCV genotype 1a replicon cells, 96 hours incubation, NS3/4A ELISA readout, % of DMSO control. The essentials:
(§1)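 Stable neomycin-resistant replicon cell lines (genotype 1a or 1b) incubated 96 h with compound dilution series without G418. After washing and lysis, replication measured by cell ELISA for replicon-encoded NS3/4A protein; IC50 as % of DMSO control via four-parameter fit.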
(In general: In antiviral work, replicon cells carry a viral genome segment that copies itself.)

For another test, the system named is HCV replicon genotype 1b. Nature of the test: HCV replicon assay, genotype 1b (cell ELISA for NS3/4A). Type of test: cell-based, hepatitis C virus. The following applies: Hepatitis C virus, 96 h, read-out: 1b IC50 (nM), HCV genotype 1b replicon cells, 96 hours incubation, NS3/4A ELISA readout, % of DMSO control. The procedure, abridged:
as §1

Regarding `CNC(=O)c1c(-c2ccc(F)cc2)oc2cc(N(C)S(C)(=O)=O)c([C@H]3CCCN(S(=O)(=O)Cc4ccc(F)c(F)c4)C3)cc12` [Example 84, 5-{(3R)-1-[(3,4-difluorobenzyl)sulfonyl]piperidin-3-yl}-2-(4-fluorophenyl)-N-methyl-6-[methyl(methylsulfonyl)amino]-1-benzofuran-3-carboxamide], the figures for the IC50 in the test with HCV replicon genotype 1a and in the test with HCV replicon genotype 1b were 2.77 nM and 3.04 nM, respectively.

On to `CNC(=O)c1c(-c2ccc(F)cc2)oc2cc(N(C)S(C)(=O)=O)c([C@H]3CCCN(C(=O)c4cc5cc(F)ccc5n4C)C3)cc12` [Example 85, 5-{(3R)-1-[(5-fluoro-1-methyl-1H-indol-2-yl)carbonyl]piperidin-3-yl}-2-(4-fluorophenyl)-N-methyl-6-[methyl(methylsulfonyl)amino]-1-benzofuran-3-carboxamide], for which the figures for the IC50 in the test with HCV replicon genotype 1a and with HCV replicon genotype 1b were 26 nM and 12.5 nM, respectively.

`CNC(=O)c1c(-c2ccc(F)cc2)oc2cc(N(C)S(C)(=O)=O)c([C@H]3CCCN(C(=O)c4c(C)c5cc(F)ccc5n4C)C3)cc12` [Example 86, 5-{(3R)-1-[(5-fluoro-1,3-dimethyl-1H-indol-2-yl)carbonyl]piperidin-3-yl}-2-(4-fluorophenyl)-N-methyl-6-[methyl(methylsulfonyl)amino]-1-benzofuran-3-carboxamide]: the IC50 with HCV replicon genotype 1a turned out to be 234 nM; in the test with HCV replicon genotype 1b it was 115 nM.

As for `CNC(=O)c1c(-c2ccc(F)cc2)oc2cc(N(C)S(C)(=O)=O)c([C@H]3CCCN(C(=O)c4nc5ccccc5[nH]4)C3)cc12` [Example 87, 5-[(3R)-1-(1H-benzimidazol-2-ylcarbonyl)piperidin-3-yl]-2-(4-fluorophenyl)-N-methyl-6-[methyl(methylsulfonyl)amino]-1-benzofuran-3-carboxamide], the IC50 in the test with HCV replicon genotype 1a turned out to be 267 nM; in the test on HCV replicon genotype 1b, 112 nM.

For `CNC(=O)c1c(-c2ccc(F)cc2)oc2cc(N(C)S(C)(=O)=O)c([C@H]3CCCN(C(=O)c4cc5c(F)cccc5[nH]4)C3)cc12` [Example 88, 5-{(3R)-1-[(4-fluoro-1H-indol-2-yl)carbonyl]piperidin-3-yl}-2-(4-fluorophenyl)-N-methyl-6-[methyl(methylsulfonyl)amino]-1-benzofuran-3-carboxamide], the IC50 in the test on HCV replicon genotype 1a came out at 70.7 nM; in the test with HCV replicon genotype 1b, 38.7 nM.

Take `CNC(=O)c1c(-c2ccc(F)cc2)oc2cc(N(C)S(C)(=O)=O)c([C@H]3CCCN(C(=O)c4cc5cc(C(F)(F)F)ccc5n4C)C3)cc12` [Example 89, 2-(4-fluorophenyl)-N-methyl-6-[methyl(methylsulfonyl)amino]-5-[(3R)-1-{[1-methyl-5-(trifluoromethyl)-1H-indol-2-yl]carbonyl}piperidin-3-yl]-1-benzofuran-3-carboxamide]: the IC50 in the test on HCV replicon genotype 1a stood at 84.4 nM; in the test on HCV replicon genotype 1b, 45.2 nM.

As for `CNC(=O)c1c(-c2ccc(F)cc2)oc2cc(N(C)S(C)(=O)=O)c([C@H]3CCCN(C(=O)c4cc5cc(F)ccc5[nH]4)C3)cc12` [Example 90, (R)-5-(1-(5-fluoro-1H-indole-2-carbonyl)piperidin-3-yl)-2-(4-fluorophenyl)-N-methyl-6-(N-methylmethylsulfonamido)benzofuran-3-carboxamide], the IC50 turned out to be 41.6 nM in the test on HCV replicon genotype 1a and 20.7 nM with HCV replicon genotype 1b.

For the compound `CNC(=O)c1c(-c2ccc(F)cc2)oc2cc(N(C)S(C)(=O)=O)c([C@H]3CCCN(C(=O)c4cc5cccc(F)c5o4)C3)cc12` [Example 91, (R)-5-(1-(7-fluorobenzofuran-2-carbonyl)piperidin-3-yl)-2-(4-fluorophenyl)-N-methyl-6-(N-methylmethylsulfonamido)benzofuran-3-carboxamide], the results for the IC50 in the test with HCV replicon genotype 1a and in the test with HCV replicon genotype 1b were 180 nM and 62.6 nM, respectively.

Take `CNC(=O)c1c(-c2ccc(F)cc2)oc2cc(N(C)S(C)(=O)=O)c([C@H]3CCCN(C(=O)c4nc5ccc(F)cc5[nH]4)C3)cc12` [Example 92, 5-{(3R)-1-[(6-fluoro-1H-benzimidazol-2-yl)carbonyl]piperidin-3-yl}-2-(4-fluorophenyl)-N-methyl-6-[methyl(methylsulfonyl)amino]-1-benzofuran-3-carboxamide]: the IC50 with HCV replicon genotype 1a turned out to be 274 nM; in the test on HCV replicon genotype 1b, 97 nM.

As for `CNC(=O)c1c(-c2ccc(F)cc2)oc2cc(N(C)S(C)(=O)=O)c([C@H]3CCCN(C(=O)c4nc5ccc(F)cc5s4)C3)cc12` [Example 93, 5-{(3R)-1-[(6-fluoro-1,3-benzothiazol-2-yl)carbonyl]piperidin-3-yl}-2-(4-fluorophenyl)-N-methyl-6-[methyl(methylsulfonyl)amino]-1-benzofuran-3-carboxamide], the IC50 stood at 181 nM in the test on HCV replicon genotype 1a and 102 nM with HCV replicon genotype 1b.

For the compound `CNC(=O)c1c(-c2ccc(F)cc2)oc2cc(N(C)S(C)(=O)=O)c([C@H]3CCCN(C(=O)[C@@H](NC(=O)OC(C)(C)C)c4ccccc4F)C3)cc12` [Example 94, tert-butyl {(1S)-1-(2-fluorophenyl)-2-[(3R)-3-{2-(4-fluorophenyl)-3-(methylcarbamoyl)-6-[methyl(methylsulfonyl)amino]-1-benzofuran-5-yl}piperidin-1-yl]-2-oxoethyl}carbamate], the IC50 is 300 nM in the test on HCV replicon genotype 1a and 168 nM in the test with HCV replicon genotype 1b.

`CNC(=O)c1c(-c2ccc(F)cc2)oc2cc(N(C)S(C)(=O)=O)c([C@H]3CCCN(C(=O)Cc4ccc5nccnc5c4)C3)cc12` [Example 95, 2-(4-fluorophenyl)-N-methyl-6-[methyl(methylsulfonyl)amino]-5-[(3R)-1-(quinoxalin-6-ylacetyl)piperidin-3-yl]-1-benzofuran-3-carboxamide]: the IC50 was 176 nM in the test with HCV replicon genotype 1a and 106 nM in the test on HCV replicon genotype 1b.

Consider `CNC(=O)c1c(-c2ccc(F)cc2)oc2cc(N(C)S(C)(=O)=O)c([C@H]3CCCN(C(=O)c4nn(C)c(=O)c5ccccc45)C3)cc12` [Example 96, 2-(4-fluorophenyl)-N-methyl-6-[methyl(methylsulfonyl)amino]-5-{(3R)-1-[(3-methyl-4-oxo-3,4-dihydrophthalazin-1-yl)carbonyl]piperidin-3-yl}-1-benzofuran-3-carboxamide], for which the IC50 was found to be 423 nM with HCV replicon genotype 1a and 219 nM in the test with HCV replicon genotype 1b.

In the case of `CNC(=O)c1c(-c2ccc(F)cc2)oc2cc(N(C)S(C)(=O)=O)c([C@H]3CCCN(C(=O)c4n[nH]c(=O)c5ccccc45)C3)cc12` [Example 97, 2-(4-fluorophenyl)-N-methyl-6-[methyl(methylsulfonyl)amino]-5-{(3R)-1-[(4-oxo-3,4-dihydrophthalazin-1-yl)carbonyl]piperidin-3-yl}-1-benzofuran-3-carboxamide], the values for the IC50 in the test with HCV replicon genotype 1a and with HCV replicon genotype 1b were 336 nM and 470 nM, respectively.

For the compound `CNC(=O)c1c(-c2ccc(F)cc2)oc2cc(N(C)S(C)(=O)=O)c([C@H]3CCCN(C(=O)C(c4ccccc4)N4CCOCC4)C3)cc12` (stereo partly drawn) [Example 98, 2-(4-fluorophenyl)-N-methyl-6-[methyl(methylsulfonyl)amino]-5-{(3R)-1-[morpholin-4-yl(phenyl)acetyl]piperidin-3-yl}-1-benzofuran-3-carboxamide], the IC50 in the test on HCV replicon genotype 1a is 241 nM; with HCV replicon genotype 1b, 112 nM.

In the case of `CNC(=O)c1c(-c2ccc(F)cc2)oc2cc(N(C)S(C)(=O)=O)c([C@H]3CCCN(C(=O)c4n[nH]c5cc(Br)ccc45)C3)cc12` [Example 99, 5-{(3R)-1-[(6-bromo-1H-indazol-3-yl)carbonyl]piperidin-3-yl}-2-(4-fluorophenyl)-N-methyl-6-[methyl(methylsulfonyl)amino]-1-benzofuran-3-carboxamide], the results for the IC50 in the test with HCV replicon genotype 1a and with HCV replicon genotype 1b were 137 nM and 66.7 nM, respectively.

As to `CNC(=O)c1c(-c2ccc(F)cc2)oc2cc(N(C)S(C)(=O)=O)c([C@H]3CCCN(C(=O)c4nn(CC5CC5)c5ccccc45)C3)cc12` [Example 100, 5-[(3R)-1-{[1-(cyclopropylmethyl)-1H-indazol-3-yl]carbonyl}piperidin-3-yl]-2-(4-fluorophenyl)-N-methyl-6-[methyl(methylsulfonyl)amino]-1-benzofuran-3-carboxamide], the IC50 in the test on HCV replicon genotype 1a was 65 nM; in the test on HCV replicon genotype 1b it was 20.4 nM.

For the compound `CNC(=O)c1c(-c2ccc(F)cc2)oc2cc(N(C)S(C)(=O)=O)c([C@H]3CCCN(C(=O)c4cn(C)c5ccccc45)C3)cc12` [Example 101, 2-(4-fluorophenyl)-N-methyl-5-{(3R)-1-[(1-methyl-1H-indol-3-yl)carbonyl]piperidin-3-yl}-6-[methyl(methylsulfonyl)amino]-1-benzofuran-3-carboxamide], the IC50 with HCV replicon genotype 1a was 103 nM; in the test on HCV replicon genotype 1b it was 55.9 nM.

For `CNC(=O)c1c(-c2ccc(F)cc2)oc2cc(N(C)S(C)(=O)=O)c([C@H]3CCCN(C(=O)c4c[nH]c5cc(F)ccc45)C3)cc12` [Example 102, 5-{(3R)-1-[(6-fluoro-1H-indol-3-yl)carbonyl]piperidin-3-yl}-2-(4-fluorophenyl)-N-methyl-6-[methyl(methylsulfonyl)amino]-1-benzofuran-3-carboxamide], the IC50 turned out to be 345 nM with HCV replicon genotype 1a and 295 nM with HCV replicon genotype 1b.

On to `CNC(=O)c1c(-c2ccc(F)cc2)oc2cc(N(C)S(C)(=O)=O)c([C@H]3CCCN(C(=O)c4cn5c(Br)cccc5n4)C3)cc12` [Example 103, 5-{(3R)-1-[(5-bromoimidazo[1,2-a]pyridin-2-yl)carbonyl]piperidin-3-yl}-2-(4-fluorophenyl)-N-methyl-6-[methyl(methylsulfonyl)amino]-1-benzofuran-3-carboxamide], for which the IC50 in the test on HCV replicon genotype 1a stood at 212 nM; in the test on HCV replicon genotype 1b, 110 nM.

For the compound `CNC(=O)c1c(-c2ccc(F)cc2)oc2cc(N(C)S(C)(=O)=O)c([C@H]3CCCN(C(=O)c4cn5cc(Cl)cc(N)c5n4)C3)cc12` [Example 104, 5-{(3R)-1-[(8-amino-6-chloroimidazo[1,2-a]pyridin-2-yl)carbonyl]piperidin-3-yl}-2-(4-fluorophenyl)-N-methyl-6-[methyl(methylsulfonyl)amino]-1-benzofuran-3-carboxamide], the values for the IC50 in the test with HCV replicon genotype 1a and in the test on HCV replicon genotype 1b were 284 nM and 136 nM, respectively.

Values taken from patent publication US9549921B2, “Heterocyclic compounds and methods of use thereof for the treatment of hepatitis C” (priority 2014, dated 2017).
